Laboratory results as given in patent publication US12209085B2, “RET inhibitors, pharmaceutical compositions and uses thereof” (SUNSHINE LAKE PHARMA CO., LTD., priority 2018, dated 2025).

Experiments:
Ret V804M = Ret V804M (Homo sapiens (Human), UniProt P07949, V804M); test: HTRF kinase inhibition assay, Ret V804M; format: biochemical; conditions: HTRF method
Source text: (§1) • 1. […] 1) • 18) Echo (Labcyte, 550) • 3.
(§2) [formula] • Ratiopositive control: average of CEP-32496 readings in all positive control wells • Rationegative control: average of DMSO readings in all negative control wells • Wherein, the chemical name of CEP-32496 is: N-[3-[(6,7-dimethoxy-4-quinazolinyl)oxy]phenyl]-N′-[5-(2,2,2-trifluoro-1,1-dimethylethyl)-3-isoxazolyl]urea. • 4.3 Calculation of the IC50 and Drawing of the inhibition curve of the compound: • The IC50 (half inhibitory concentration) of the compound was obtained using the following non-linear fitting formula: Data analysis was performed using Graphpad 6.0 software. Y=Bottom+(Top−Bottom)/(1+10^((Log IC50−X)*Hill Slope)) • X: compound concentration log value Y: inhibition, % • 5.

Ret wt = Ret wt (Homo sapiens (Human), UniProt P07949); test: HTRF kinase inhibition assay, Ret wt; format: biochemical; conditions: HTRF method
Source text: as §1, §2

Chain of Ret wt (P07949 29-1114): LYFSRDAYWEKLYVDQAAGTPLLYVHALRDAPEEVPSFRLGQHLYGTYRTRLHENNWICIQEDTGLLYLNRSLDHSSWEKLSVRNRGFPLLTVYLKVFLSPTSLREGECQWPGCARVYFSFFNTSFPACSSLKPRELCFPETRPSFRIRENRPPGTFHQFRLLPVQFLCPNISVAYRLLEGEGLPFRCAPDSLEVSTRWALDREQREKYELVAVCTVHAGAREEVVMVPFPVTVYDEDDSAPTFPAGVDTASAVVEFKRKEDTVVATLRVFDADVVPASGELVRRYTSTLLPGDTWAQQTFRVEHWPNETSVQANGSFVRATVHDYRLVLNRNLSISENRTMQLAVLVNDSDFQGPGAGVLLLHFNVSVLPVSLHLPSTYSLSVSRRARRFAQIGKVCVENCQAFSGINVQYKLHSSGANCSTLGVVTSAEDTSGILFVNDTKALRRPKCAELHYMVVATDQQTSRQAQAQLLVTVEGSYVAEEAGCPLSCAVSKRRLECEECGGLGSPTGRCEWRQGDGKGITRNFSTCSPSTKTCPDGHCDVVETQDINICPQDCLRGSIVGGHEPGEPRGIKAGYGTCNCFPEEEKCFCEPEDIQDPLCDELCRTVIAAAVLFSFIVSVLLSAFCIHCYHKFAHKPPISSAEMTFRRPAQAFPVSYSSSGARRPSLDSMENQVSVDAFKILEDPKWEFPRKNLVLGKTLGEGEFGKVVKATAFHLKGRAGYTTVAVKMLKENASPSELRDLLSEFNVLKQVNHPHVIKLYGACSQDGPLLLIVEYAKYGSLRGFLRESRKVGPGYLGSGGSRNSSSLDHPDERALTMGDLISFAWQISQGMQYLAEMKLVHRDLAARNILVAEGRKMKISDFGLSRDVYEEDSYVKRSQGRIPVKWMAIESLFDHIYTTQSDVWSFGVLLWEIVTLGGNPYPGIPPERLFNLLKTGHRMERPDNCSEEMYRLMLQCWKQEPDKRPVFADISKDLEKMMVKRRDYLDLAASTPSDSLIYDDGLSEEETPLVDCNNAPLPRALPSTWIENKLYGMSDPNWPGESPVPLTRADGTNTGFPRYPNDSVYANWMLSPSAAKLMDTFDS
Chain of Ret V804M (P07949 29-1114 V804M): as the sequence (P07949 29-1114) above, with V776M counted along it

| SMILES | IC50 (Ret V804M) [nM] | IC50 (Ret wt) [nM] |
| --- | --- | --- |
| C#Cc1ccc(O[C@H]2CCN(c3ccc(-c4cc(-c5cnn(C(F)F)c5)cn5ncc(C#N)c45)cn3)C2)cn1 [Example 284, (S)-6-(1-(difluoromethyl)-1H-pyrazol-4-yl)-4-(6-(3-((6-ethynylpyridin-3-yl)oxy)pyrrolidin-1-yl)pyridin-3-yl) pyrazolo[1,5-a]pyridine-3-carbonitrile] | 23 | 1.63 |
| Cn1cc(-c2cc(-c3ccc(N4CC5CC(C4)N5CC#Cc4ccccn4)nc3)c3c(C#N)cnn3c2)cn1 [Example 244] | 0.27 | 0.15 |
| C#Cc1ccc(C(=O)N2CCN(c3ccc(-c4cc(-c5cnn(C)c5)cn5ncc(C#N)c45)cn3)CC2)cc1F [Example 236, 4-(6-(4-(4-ethynyl-3-fluorobenzoyl)piperazin-1-yl)pyridin-3-yl)-6-(1-methyl-1H-pyrazol-4-yl)pyrazolo[1,5-a]pyridine-3-carbonitrile] | 19.7 | 1.57 |
| C#Cc1ccc(OC2CN(c3ccc(-c4cc(-c5cnn(C)c5)cn5ncc(C#N)c45)cn3)C2)cn1 [Example 287, 4-(6-(3-((6-ethynylpyridin-3-yl)oxy)azetidin-1-yl)pyridin-3-yl)-6-(1-methyl-1H-pyrazol-4-yl) pyrazolo[1,5-a]pyridine-3-carbonitrile] | 0.2 | 0.13 |
| Cn1cc(-c2cc(-c3ccc(N4CC5CC(C4)N5CC#Cc4cncc(F)c4)nc3)c3c(C#N)cnn3c2)cn1 [Example 259, 4-(6-(6-(3-(5-fluoropyridin-3-yl)prop-2-yn-1-yl)-3,6-diazabicyclo[3.1.1]heptane-3-yl)pyridin-3-yl)-6-(1-methyl-1H-pyrazol-4-yl)pyrazolo[1,5-a]pyridin-3-carbonitrile] | 0.91 | 0.16 |
| COc1ccnc(C#CCN2CCN(c3ccc(-c4cc(-c5cnn(C)c5)cn5ncc(C#N)c45)cn3)CC2)c1 [Example 252, 4-(6-(4-(3-(4-methoxypyridin-2-yl)propan-2-ynyl-1-yl)piperazin-1-yl)pyridin-3-yl)-6-(1-methyl-1H-pyrazolin-4-yl)pyrazole[1,5-a]pyridine-3-carbonitrile] | 3.21 | 0.25 |
| Cn1cc(-c2cc(-c3ccc(N4CCN(CC#Cc5cccnc5)CC4)nc3)c3c(C#N)cnn3c2)cn1 [Example 248, 6-(1-methylpyrazol-4-yl)-4-[6-[4-[3-(3-pyridyl)prop-2-ynyl]piperazin-1-yl]-3-pyridyl]pyrazolo[1,5-a]pyridine-3-carbonitrile] | 5.76 | 0.58 |
| COc1cncc(C#CC(=O)N2CCN(c3ccc(-c4cc(-c5cnn(C)c5)cn5ncc(C#N)c45)cn3)CC2)c1 [Example 272, 4-(6-(4-(3-(5-methoxypyridin-3-yl)propioloyl)piperazin-1-yl)pyridin-3-yl)-6-(1-methyl-1H-pyrazol-4-yl)pyrazolo[1,5-a]pyridine-3-carbonitrile] | 5.26 | 0.72 |
| C#Cc1cc(F)c(CN2C3CC2CN(c2ccc(-c4cc(-c5cnn(C)c5)cn5ncc(C#N)c45)cn2)C3)c(F)c1 [Example 222, 4-(6-(6-(4-ethynyl-2,6-difluorobenzyl)-3,6-diazabicyclo[3.1.1]heptan-3-yl)pyridin-3-yl)-6-(1-methyl-1H-pyrazol-4-yl)pyrazolo[1,5-a]pyridine-3-carbonitrile] | 4.35 | 0.43 |
| Cn1cc(-c2cc(-c3ccc(N4CC5CC(C4)N5C(=O)C#Cc4cccnc4)nc3)c3c(C#N)cnn3c2)cn1 [Example 273, 6-(1-methyl-1H-pyrazol-4-yl)-4-(6-(6-(3-(pyridin-3-yl)propioloyl]-3,6-diazabicyclo[3.1.1]heptan-3-yl]-3-pyridin]pyrazolo[1,5-a]pyridine-3-carbonitrile] | 82.6 | 4.28 |
| C#CCNC1(C)CCN(c2ccc(-c3cc(-c4cnn(C)c4)cn4ncc(C#N)c34)cn2)CC1 [Example 277, 6-(1-methyl-1H-pyrazol-4-yl)-4-(6-(4-methyl-4-(prop-2-yn-1-ylamino)piperidin-1-yl)pyridin-3-yl)pyrazolo[1,5-a]pyridine-3-carbonitrile] | 10.3 | 1.38 |
| C#Cc1ccc(OC2CN(c3ccc(-c4cc(-c5cnn(C(F)F)c5)cn5ncc(C#N)c45)cn3)C2)cc1 [Example 285, 6-(1-(difluoromethyl)-1H-pyrazol-4-yl)-4-(6-(3-(4-ethynylphenoxy)azetidin-1-yl)pyridin-3-yl)pyrazolo[1,5-a]pyridine-3-carbonitrile] | 0.71 | 0.56 |
| C#Cc1cc(F)c(C(=O)N2CCN(c3ccc(-c4cc(-c5cnn(C)c5)cn5ncc(C#N)c45)cn3)CC2)c(F)c1 [Example 234, 4-(6-(4-(4-ethynyl-2,6-difluorobenzoyl)piperazin-1-yl)pyridin-3-yl)-6-(1-methyl-1H-pyrazol-4-yl)pyrazolo[1,5-a]pyridine-3-carbonitrile] | 62.3 | 4 |
| C#Cc1cc(F)c(C(=O)N2C3CC2CN(c2ccc(-c4cc(-c5cnn(C)c5)cn5ncc(C#N)c45)cn2)C3)c(F)c1 [Example 235] | 10 | 0.4 |
| Cn1cc(-c2cc(-c3ccc(N4CC5CC(C4)N5CC#Cc4cccnc4F)nc3)c3c(C#N)cnn3c2)cn1 [Example 256, 4-[6-[6-[3-(2-fluoro-3-pyridyl)prop-2-ynyl]-3,6-diazabicyclo[3.1.1]heptan-3-yl]3-pyridyl]-6-(1-methylpyrazol-4-yl)pyrazolo[1,5-a]pyridine-3-carbonitrile] | 0.44 | 0.14 |
| Cn1cc(-c2cc(-c3ccc(N4CCN(CC#Cc5ccc(F)nc5)CC4)nc3)c3c(C#N)cnn3c2)cn1 [Example 261, 4-[6-[4-[3-(6-fluoro-3-pyridyl)prop-2-ynyl]piperazin-1-yl]-3-pyridyl]-6-(1-methylpyrazol-4-yl)pyrazolo[1,5-a]pyridine-3-carbonitrile] | 5.1 | 3.1 |
| C#Cc1cccc(CN2CCN(c3ccc(-c4cc(-c5cnn(C)c5)cn5ncc(C#N)c45)cn3)CC2)c1F [Example 224, 4-(6-(4-(3-ethynyl-2-fluorobenzyl)piperazin-1-yl)pyridin-3-yl)-6-(1-methyl-1H-pyrazol-4-yl)pyrazolo[1,5-a]pyridine-3-carbonitrile] | 21 | 0.57 |
| Cn1cc(-c2cc(-c3ccc(N4CCN(CC#Cc5ccccc5)CC4)nc3)c3c(C#N)cnn3c2)cn1 [Example 253, 6-(1-methyl-1H-pyrazol-4-yl)-4-(6-(4-(3-phenylprop-2-yn-1-yl)piperazin-1-yl)pyridine-3-yl)pyrazolo[1,5-a]pyridine-3-carbonitrile] | 5.47 | 0.91 |
| C#Cc1ccc(CN2CCN(c3ccc(-c4cc(-c5cnn(C)c5)cn5ncc(C#N)c45)cn3)CC2)nc1 [Example 225] | 2.22 | 0.39 |
| Cn1cc(-c2cc(-c3ccc(N4CC5CC(C4)N5CC#Cc4ccncc4)nc3)c3c(C#N)cnn3c2)cn1 [Example 245, 6-(1-methyl-1H-pyrazol-4-yl)-4-(6-(6-(3-(pyridin-4-yl)propan-2-yn-1-yl)-3,6-diazabicyclo[3.1.1]heptan-3-yl)pyridin-3-yl)pyrazole[1,5-a]pyridine-3-carbonitrile] | 10.7 | 0.65 |
